Here are results for two compounds from paper PMC8213057, “Targeting ALK2: An Open Science Approach to Developing Therapeutics for the Treatment of Diffuse Intrinsic Pontine Glioma” (Journal of Medicinal Chemistry, 2020).

One experiment deals with T1, MARK4 (Homo sapiens, UniProt Q96L34).
T1 sequence (Q96L34 1-752): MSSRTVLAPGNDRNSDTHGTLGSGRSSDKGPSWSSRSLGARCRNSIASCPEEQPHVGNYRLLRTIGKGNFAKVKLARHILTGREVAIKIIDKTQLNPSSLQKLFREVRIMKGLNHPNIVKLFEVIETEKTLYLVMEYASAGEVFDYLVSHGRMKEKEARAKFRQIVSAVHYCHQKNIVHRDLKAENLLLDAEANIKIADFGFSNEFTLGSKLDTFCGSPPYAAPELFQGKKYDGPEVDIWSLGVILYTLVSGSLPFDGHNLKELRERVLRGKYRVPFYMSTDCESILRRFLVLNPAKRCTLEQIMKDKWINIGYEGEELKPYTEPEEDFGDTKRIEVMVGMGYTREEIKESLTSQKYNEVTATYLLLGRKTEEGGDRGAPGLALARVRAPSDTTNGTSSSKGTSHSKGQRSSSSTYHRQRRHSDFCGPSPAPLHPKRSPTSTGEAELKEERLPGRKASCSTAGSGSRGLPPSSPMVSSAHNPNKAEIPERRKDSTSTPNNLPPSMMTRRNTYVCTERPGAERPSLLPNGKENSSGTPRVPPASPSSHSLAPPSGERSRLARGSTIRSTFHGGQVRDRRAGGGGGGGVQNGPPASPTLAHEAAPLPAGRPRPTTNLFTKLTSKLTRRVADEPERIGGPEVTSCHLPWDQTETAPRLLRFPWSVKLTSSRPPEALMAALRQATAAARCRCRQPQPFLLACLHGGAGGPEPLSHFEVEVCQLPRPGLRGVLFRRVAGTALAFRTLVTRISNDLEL
The following applies: 1 μM; Run 1, Run 2.

The next experiment deals with PKA (Homo sapiens, UniProt P17612). The experiment is described as follows: biochemical. The following applies: read-out: % enzyme activity, 1 μM; Run 1, Run 2.
The next experiment has as its target PAK1 (Homo sapiens, UniProt Q13153). The experiment in a line: biochemical. Conditions: read-out: % enzyme activity, 1 μM; Run 1, Run 2.
The next experiment deals with CDK18/cyclin Y (PCTK3) (Homo sapiens, UniProt Q07002). The experiment in a line: biochemical. Conditions: read-out: % enzyme activity, 1 μM; Run 1, Run 2.
The target in the next experiment is YES/YES1 (Homo sapiens, UniProt P07947). The following applies: 1 μM; Run 1, Run 2.
Another experiment deals with T2, ALK1/ACVRL1 (Homo sapiens, UniProt P37023).
T2 construct: purchased Reaction Biology Corporation
The experiment is described as follows: 375-member kinase panel. It is filed as biochemical. Conditions: Run 1, Run 2; for % enzyme activity: 1 μM.

Another experiment addresses JNK2 (Homo sapiens, UniProt P45984). The experiment is described as follows: biochemical. Conditions: read-out: % enzyme activity, 1 μM; Run 1, Run 2.
The target of a further experiment is DMPK2 (Homo sapiens, UniProt Q6DT37). The experiment in a line: biochemical. The following applies: read-out: % enzyme activity, 1 μM; Run 1, Run 2.
The target in another experiment is AKT2 (Homo sapiens, UniProt P31751). The experiment is described as follows: biochemical. Conditions: read-out: % enzyme activity, 1 μM; Run 1, Run 2.
The target in another experiment is T3, CHK1 (Homo sapiens, UniProt O14757).
T3 sequence (O14757 1-476): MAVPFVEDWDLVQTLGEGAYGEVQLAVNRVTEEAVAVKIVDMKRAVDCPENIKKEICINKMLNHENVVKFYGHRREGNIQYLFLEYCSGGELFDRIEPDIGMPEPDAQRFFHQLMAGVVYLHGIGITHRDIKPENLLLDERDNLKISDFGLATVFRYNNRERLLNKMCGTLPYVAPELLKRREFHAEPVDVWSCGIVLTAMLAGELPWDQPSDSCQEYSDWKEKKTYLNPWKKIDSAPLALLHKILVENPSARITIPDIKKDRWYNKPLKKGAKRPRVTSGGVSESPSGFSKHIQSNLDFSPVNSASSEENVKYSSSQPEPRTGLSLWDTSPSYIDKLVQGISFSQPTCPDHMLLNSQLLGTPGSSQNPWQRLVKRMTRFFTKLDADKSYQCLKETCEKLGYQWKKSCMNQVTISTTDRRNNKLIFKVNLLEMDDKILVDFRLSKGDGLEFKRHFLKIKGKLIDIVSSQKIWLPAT
The experiment is described as follows: biochemical. Conditions: read-out: % enzyme activity, 1 μM; Run 1, Run 2.

Another experiment has as its target MEK2 (Homo sapiens, UniProt P36507). The experiment in a line: biochemical. Conditions: read-out: % enzyme activity, 1 μM; Run 1, Run 2.
In the next experiment the target is NEK7 (Homo sapiens, UniProt Q8TDX7). The experiment in a line: biochemical. Conditions: read-out: % enzyme activity, 1 μM; Run 1, Run 2.
A further experiment deals with T4, STK22D/TSSK1 (Homo sapiens, UniProt Q9BXA7).
T4 sequence (Q9BXA7 1-367): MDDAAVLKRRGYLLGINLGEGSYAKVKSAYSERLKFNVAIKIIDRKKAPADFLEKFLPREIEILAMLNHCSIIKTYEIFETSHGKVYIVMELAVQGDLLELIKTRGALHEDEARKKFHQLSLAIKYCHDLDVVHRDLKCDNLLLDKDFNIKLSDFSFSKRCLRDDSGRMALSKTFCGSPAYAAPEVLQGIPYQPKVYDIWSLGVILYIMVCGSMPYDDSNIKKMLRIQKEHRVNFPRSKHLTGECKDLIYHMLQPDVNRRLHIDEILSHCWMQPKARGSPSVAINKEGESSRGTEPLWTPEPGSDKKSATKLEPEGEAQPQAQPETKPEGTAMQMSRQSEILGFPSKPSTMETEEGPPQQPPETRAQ
Conditions: 1 μM; Run 1, Run 2.

“And” between values parts separate entries of the source, which are not always exact repeats. Identical values can stand only once.

T2 sequence (P37023 22-503): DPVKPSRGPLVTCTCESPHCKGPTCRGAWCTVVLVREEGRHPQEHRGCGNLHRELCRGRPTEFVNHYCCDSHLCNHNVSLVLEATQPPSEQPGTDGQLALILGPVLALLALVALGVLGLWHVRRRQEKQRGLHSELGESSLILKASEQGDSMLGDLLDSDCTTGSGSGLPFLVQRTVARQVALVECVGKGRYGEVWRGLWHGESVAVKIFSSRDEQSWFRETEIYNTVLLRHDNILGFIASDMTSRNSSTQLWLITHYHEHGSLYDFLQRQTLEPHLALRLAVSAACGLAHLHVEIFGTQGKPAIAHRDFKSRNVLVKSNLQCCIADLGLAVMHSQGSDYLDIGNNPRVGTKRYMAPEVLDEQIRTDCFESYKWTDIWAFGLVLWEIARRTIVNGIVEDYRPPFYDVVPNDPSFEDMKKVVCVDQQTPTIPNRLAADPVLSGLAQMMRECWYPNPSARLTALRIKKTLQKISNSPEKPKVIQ
Sequence of MEK2 (P36507 whole entry): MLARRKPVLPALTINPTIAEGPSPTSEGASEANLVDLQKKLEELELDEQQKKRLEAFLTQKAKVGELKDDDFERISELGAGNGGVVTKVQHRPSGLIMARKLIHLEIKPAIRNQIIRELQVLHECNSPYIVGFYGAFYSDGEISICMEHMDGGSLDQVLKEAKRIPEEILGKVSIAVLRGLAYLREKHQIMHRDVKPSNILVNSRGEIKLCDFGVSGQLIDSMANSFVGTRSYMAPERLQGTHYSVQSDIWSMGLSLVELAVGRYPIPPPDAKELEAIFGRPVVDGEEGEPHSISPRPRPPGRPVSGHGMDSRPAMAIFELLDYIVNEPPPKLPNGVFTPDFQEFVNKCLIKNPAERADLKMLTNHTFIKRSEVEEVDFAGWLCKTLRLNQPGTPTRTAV
Sequence of CDK18/cyclin Y (PCTK3) (Q07002 whole entry): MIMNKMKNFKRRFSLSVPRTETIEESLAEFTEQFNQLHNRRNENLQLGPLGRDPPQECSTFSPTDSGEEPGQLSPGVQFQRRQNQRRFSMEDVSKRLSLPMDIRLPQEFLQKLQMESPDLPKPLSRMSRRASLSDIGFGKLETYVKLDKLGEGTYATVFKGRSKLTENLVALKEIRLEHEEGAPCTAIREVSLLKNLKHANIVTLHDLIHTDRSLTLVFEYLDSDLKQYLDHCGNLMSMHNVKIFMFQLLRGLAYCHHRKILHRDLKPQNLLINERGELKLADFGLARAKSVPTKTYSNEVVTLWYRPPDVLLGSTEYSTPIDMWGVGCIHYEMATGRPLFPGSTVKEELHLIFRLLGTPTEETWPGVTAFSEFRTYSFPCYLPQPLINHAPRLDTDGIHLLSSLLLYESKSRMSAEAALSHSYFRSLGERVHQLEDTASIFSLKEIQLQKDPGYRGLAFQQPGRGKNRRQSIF
Sequence of CDK18/cyclin Y (PCTK3) (Q8ND76 whole entry partner): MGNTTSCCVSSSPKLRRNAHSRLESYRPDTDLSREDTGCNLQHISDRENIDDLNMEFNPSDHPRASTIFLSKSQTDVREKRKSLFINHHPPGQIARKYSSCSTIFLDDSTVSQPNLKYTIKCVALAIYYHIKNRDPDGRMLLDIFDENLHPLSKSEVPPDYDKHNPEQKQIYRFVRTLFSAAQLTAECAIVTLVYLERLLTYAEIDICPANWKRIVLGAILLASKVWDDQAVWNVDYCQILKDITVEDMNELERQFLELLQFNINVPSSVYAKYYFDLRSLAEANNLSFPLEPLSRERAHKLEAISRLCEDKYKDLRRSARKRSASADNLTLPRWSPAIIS
Sequence of JNK2 (P45984 whole entry): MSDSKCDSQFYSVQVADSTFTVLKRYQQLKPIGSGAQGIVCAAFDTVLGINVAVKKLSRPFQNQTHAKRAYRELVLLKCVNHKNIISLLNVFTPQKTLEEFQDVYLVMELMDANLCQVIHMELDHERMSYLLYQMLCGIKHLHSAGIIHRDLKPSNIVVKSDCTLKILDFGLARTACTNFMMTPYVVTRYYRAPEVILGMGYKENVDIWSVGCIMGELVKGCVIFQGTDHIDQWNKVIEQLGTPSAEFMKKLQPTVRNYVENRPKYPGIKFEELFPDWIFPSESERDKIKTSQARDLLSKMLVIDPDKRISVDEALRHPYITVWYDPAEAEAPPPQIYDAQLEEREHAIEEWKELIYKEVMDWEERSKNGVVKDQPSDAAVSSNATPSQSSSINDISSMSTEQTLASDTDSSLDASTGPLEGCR
Sequence of PAK1 (Q13153 whole entry): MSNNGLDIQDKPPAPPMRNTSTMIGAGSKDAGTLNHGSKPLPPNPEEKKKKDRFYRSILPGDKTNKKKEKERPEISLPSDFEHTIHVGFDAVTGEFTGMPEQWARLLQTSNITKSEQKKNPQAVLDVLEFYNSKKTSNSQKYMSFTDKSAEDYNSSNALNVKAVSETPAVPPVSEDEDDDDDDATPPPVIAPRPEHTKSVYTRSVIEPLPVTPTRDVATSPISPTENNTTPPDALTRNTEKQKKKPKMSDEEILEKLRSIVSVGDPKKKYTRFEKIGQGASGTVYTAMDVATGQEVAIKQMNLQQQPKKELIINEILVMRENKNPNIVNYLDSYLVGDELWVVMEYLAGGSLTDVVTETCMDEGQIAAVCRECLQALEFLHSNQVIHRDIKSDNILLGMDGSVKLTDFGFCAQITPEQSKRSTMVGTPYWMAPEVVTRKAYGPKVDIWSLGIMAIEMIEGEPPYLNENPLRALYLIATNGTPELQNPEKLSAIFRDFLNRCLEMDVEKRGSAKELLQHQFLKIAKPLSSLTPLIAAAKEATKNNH
Sequence of AKT2 (P31751 whole entry): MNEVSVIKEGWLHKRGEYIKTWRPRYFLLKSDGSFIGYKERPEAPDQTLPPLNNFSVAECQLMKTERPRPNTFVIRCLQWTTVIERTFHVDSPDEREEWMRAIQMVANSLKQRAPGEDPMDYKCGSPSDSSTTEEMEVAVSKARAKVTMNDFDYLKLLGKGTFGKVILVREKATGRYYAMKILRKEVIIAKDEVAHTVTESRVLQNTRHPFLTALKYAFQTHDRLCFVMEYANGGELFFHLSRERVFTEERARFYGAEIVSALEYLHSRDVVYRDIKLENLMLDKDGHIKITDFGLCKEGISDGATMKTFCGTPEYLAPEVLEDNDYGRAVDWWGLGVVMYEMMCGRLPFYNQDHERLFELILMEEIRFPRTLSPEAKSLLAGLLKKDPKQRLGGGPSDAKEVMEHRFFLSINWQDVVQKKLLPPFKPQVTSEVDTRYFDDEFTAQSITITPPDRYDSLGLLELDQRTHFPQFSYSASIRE
Sequence of YES/YES1 (P07947 whole entry): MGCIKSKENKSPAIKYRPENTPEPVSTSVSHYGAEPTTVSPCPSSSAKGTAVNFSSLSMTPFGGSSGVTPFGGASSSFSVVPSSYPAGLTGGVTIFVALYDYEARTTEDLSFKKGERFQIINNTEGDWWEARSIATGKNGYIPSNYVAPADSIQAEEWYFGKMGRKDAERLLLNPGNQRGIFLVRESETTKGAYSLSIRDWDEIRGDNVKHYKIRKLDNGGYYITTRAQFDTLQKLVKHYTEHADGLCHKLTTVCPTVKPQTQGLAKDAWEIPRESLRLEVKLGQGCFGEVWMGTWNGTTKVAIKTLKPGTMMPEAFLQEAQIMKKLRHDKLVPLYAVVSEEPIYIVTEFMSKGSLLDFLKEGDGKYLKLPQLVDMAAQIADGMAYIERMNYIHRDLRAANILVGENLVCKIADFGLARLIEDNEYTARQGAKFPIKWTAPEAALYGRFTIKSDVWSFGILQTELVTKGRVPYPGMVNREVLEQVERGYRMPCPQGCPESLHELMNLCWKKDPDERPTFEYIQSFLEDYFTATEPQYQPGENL
Sequence of NEK7 (Q8TDX7 whole entry): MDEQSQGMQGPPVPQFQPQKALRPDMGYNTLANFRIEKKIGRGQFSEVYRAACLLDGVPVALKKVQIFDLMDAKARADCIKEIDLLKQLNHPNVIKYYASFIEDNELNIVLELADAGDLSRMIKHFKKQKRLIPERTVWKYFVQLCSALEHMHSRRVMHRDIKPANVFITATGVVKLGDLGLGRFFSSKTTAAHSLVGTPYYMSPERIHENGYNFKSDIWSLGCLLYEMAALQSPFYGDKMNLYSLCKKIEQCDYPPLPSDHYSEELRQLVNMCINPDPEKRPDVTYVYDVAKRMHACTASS

As for `COc1cc(-c2cncc(-c3ccc(N4CCN(C)CC4)cc3)c2C)cc(F)c1C(N)=O` [Compound 26a, 2-Fluoro-6-methoxy-4-(4-methyl-5-(4-(4-methylpiperazin-1-yl)phenyl)pyridin-3-yl)benzamide], the “% enzyme activity” value at MARK4 is 82.62%; at YES/YES1, 104.56%; on ALK1/ACVRL1 it was 2.65%; at STK22D/TSSK1, 97.01%. Further, the remaining activity at 1 µM on PKA worked out at 97.9%; on PAK1, 105%; at CDK18/cyclin Y (PCTK3), 102%; at JNK2, 93.4%; on DMPK2 it was 83.8%; at AKT2, 91.9%. The values for the remaining activity at 1 µM at CHK1, at MEK2 and at NEK7 were 98.2%, 87.1% and 97.6%, respectively. For the same compound, the % enzyme activity at 1 μM with DYRK1B is 40.6% and 39.8%.
On to `COc1cc(-c2cncc(-c3ccc(N4C[C@@H](C)N(C)[C@@H](C)C4)cc3)c2C)cc(F)c1C(N)=O` [Compound 26c, 2-Fluoro-6-methoxy-4-(4-methyl-5-(4-((3R,5S)-3,4,5-trimethylpiperazin-1-yl)phenyl)pyridin-3-yl)benzamide], for which the “% enzyme activity” value on MARK4 turned out to be 95.76%; at YES/YES1, 108.87%; at ALK1/ACVRL1, 4.38%; at STK22D/TSSK1, 99.16%. The remaining activity at 1 µM on PKA was 96.9%; at PAK1 it was 103%; at CDK18/cyclin Y (PCTK3), 99%; at ALK1/ACVRL1 (read-out: % enzyme activity, 1 μM), 4.67%; on JNK2, 94.7%; on DMPK2 it was 87.5%. Also, the remaining activity at 1 µM at AKT2 amounted to 93%; at CHK1 it was 117%; at MEK2, 94%; on NEK7, 97.4%. Further, the % enzyme activity at 1 μM in the experiment with DYRK1B is 59.2% and 58.5%.
